From ChEMBL document CHEMBL6153062, “Design, Synthesis, and Unprecedented Interactions of Covalent Dipeptide-Based Inhibitors of SARS-CoV-2 Main Protease and Its Variants Displaying Potent Antiviral Activity” (J Med Chem, 2025)

Legend:
SARS-CoV-2 [1] = test: microbe, parasite or virus in culture; conditions: Severe acute respiratory syndrome coronavirus 2
[2] = Inhibition of SARS-CoV-2 MPro; parameters: species or system Severe acute respiratory syndrome coronavirus 2
[3] = Inhibition of recombinant SARS-CoV-1 Main protease using Ac-Abu-Tle-Leu-Gln-ACC as substrate incubated for 15 mins by fluorescence based microplate reader analysis; parameters: species or system Severe acute respiratory syndrome-related coronavirus
[4] = Inhibition of MERS-CoV Main protease using Ac-Abu-Tle-Leu-Gln-ACC as substrate incubated for 15 mins by fluorescence based microplate reader analysis; parameters: species or system Middle East respiratory syndrome-related coronavirus
[5] = Inhibition of SARS-CoV-2 MPro using Boc-Abu-Tle-Leu-Gln-AMC as substrate preincubated for 5 mins followed by substrate addition and measured after 60 mins; parameters: species or system Severe acute respiratory syndrome coronavirus 2
[6] = system: Severe acute respiratory syndrome coronavirus 2; test: Inhibition of SARS-CoV-2 MPro using Boc-Abu-Tle-Leu-Gln-AMC as substrate assessed as Kinact/Ki ratio preincubated for 5 mins followed by substrate addition and measured after 60 mins; conditions: time 65.0 min
[7] = system: Middle East respiratory syndrome-related coronavirus; test: Inhibition of MERS-CoV Main protease using Ac-Abu-Tle-Leu-Gln-ACC as substrate at 10 uM incubated for 15 mins by fluorescence based microplate reader analysis relative to control
Calu-3 = test: Cytotoxicity against human Calu-3 cells assessed as reduction in cell viability at 10 uM measured after 24 hrs by celltiter-glo assay; assay type: functional, cell-based
[8] = Reversible inhibition of SARS-CoV-2 MPro using Boc-Abu-Tle-Leu-Gln-AMC as substrate preincubated for 5 mins followed by substrate addition and measured after 60 mins; parameters: species or system Severe acute respiratory syndrome coronavirus 2
SARS-CoV-2 [9] = assay type: functional, organism-based; conditions: Severe acute respiratory syndrome coronavirus 2, B.1.513, Calu-3
[10] = Irreversible inhibition of SARS-CoV-2 MPro using Boc-Abu-Tle-Leu-Gln-AMC as substrate preincubated for 5 mins followed by substrate addition and measured after 60 mins; parameters: species or system Severe acute respiratory syndrome coronavirus 2

Compound	IC50 [3] [nM]	IC50 [4] [nM]	IC50 [5] [nM]	Ratio [6] [M⁻¹ s⁻¹]	Activity (Calu-3)	EC50 (SARS-CoV-2 [9]) [nM]	further results
O=C(Sc1ncccn1)c1cc2ccccc2[nH]1	–	–	–	–	–	–	EC50 (SARS-CoV-2 [1]): 110 nM; IC50 [2]: 11 nM
C=CC(=O)[C@H](Cc1ccccc1)NC(=O)[C@H](CC(C)C)NC(=O)/C=C/c1cc(OC)cc(OC)c1	23	> 10000	725	9130	–	–	inhibition [7]: 48%
C=CC(=O)[C@H](Cc1cccc(Cl)c1)NC(=O)[C@H](CC(C)C)NC(=O)COc1ccc(Cl)cc1Cl	13	> 10000	–	–	Not toxic	–	IC50 [8]: 37 nM; inhibition [7]: 44%
C=CC(=O)[C@H](Cc1ccccc1)NC(=O)[C@H](CC(C)C)NC(=O)COc1ccc(Cl)cc1	203	1420	97	–	Not toxic	181	–
C=CC(=O)[C@H](Cc1ccccc1)NC(=O)[C@H](CC(C)C)NC(=O)c1csc(-c2ccccc2)n1	–	–	151	32500	–	–	–
C=CC(=O)[C@H](Cc1ccccc1)NC(=O)[C@H](CC(C)C)NC(=O)/C=C/c1ccc(N(C)C)cc1	57	> 10000	279	–	Not toxic	320	inhibition [7]: 40%
CC(C)C[C@H](NC(=O)CSc1ccccc1)C(=O)N[C@@H](Cc1ccccc1)C(=O)c1nc2ccccc2s1	–	–	> 10000	–	–	–	–
C=CC(=O)[C@H](Cc1ccccc1)NC(=O)[C@H](CC(C)C)NC(=O)/C=C/c1ccc(OC(F)(F)F)cc1	72	> 10000	481	–	Not toxic	34.4	inhibition [7]: 32%
C=CC(=O)[C@H](Cc1ccccc1)NC(=O)[C@H](CC(C)C)NC(=O)/C=C/c1ccc(Cl)cc1	–	–	63	–	Not toxic	230	–
C=CC(=O)[C@H](Cc1ccccc1)NC(=O)[C@H](CC(C)C)NC(=O)c1cc2ccccc2[nH]1	357	69.7	117	–	Not toxic	2.57	–
C=CC(=O)[C@H](Cc1cccc(F)c1)NC(=O)[C@H](CC(C)C)NC(=O)CSc1ccccc1	–	–	–	–	Not toxic	4.13	IC50 [10]: 21 nM
C=CC(=O)[C@H](Cc1ccccc1)NC(=O)[C@H](CC(C)C)NC(=O)COc1cc(Cl)c(Cl)cc1Cl	–	–	134	26500	–	–	–
C=CC(=O)[C@H](Cc1ccccc1)NC(=O)[C@H](CC(C)C)NC(=O)c1cc2ccccc2s1	–	–	221	21700	–	–	–
C=CC(=O)[C@H](Cc1ccccc1F)NC(=O)[C@H](CC(C)C)NC(=O)COc1ccc(Cl)cc1Cl	–	–	159	13300	–	–	–
C=CC(=O)[C@H](Cc1ccccc1)NC(=O)[C@H](CC(C)C)NC(=O)C1CC1c1ccccc1 (some centres undefined)	–	–	138	14500	–	–	–
C=CC(=O)[C@H](Cc1ccccc1)NC(=O)[C@H](CC(C)C)NC(=O)c1sc(-c2ccccc2)nc1C	–	–	117	29000	–	–	–
C=CC(=O)[C@H](Cc1ccccc1)NC(=O)[C@H](CC(C)C)NC(=O)c1ccc(-c2ccccc2)o1	22	538	363	16400	–	–	–
CCOc1ccc(C(=O)Oc2cncc(Cl)c2)c(F)c1	–	–	–	–	–	–	EC50 (SARS-CoV-2 [1]): 27 nM; IC50 [2]: 47 nM
C=CC(=O)[C@H](Cc1ccccc1)NC(=O)[C@H](CC(C)C)NC(=O)C(C)(C)Sc1ccccc1	–	–	71	–	Not toxic	86.2	IC50 [8]: 71 nM
C=CC(=O)[C@H](Cc1ccccc1)NC(=O)[C@H](CC(C)C)NC(=O)/C=C/c1ccccc1	110	–	131	9630	–	–	–
CC(C)C[C@H](NC(=O)c1cc2ccccc2s1)C(=O)N[C@@H](Cc1ccccc1)C(=O)C=CN(C)C	–	–	18900	–	–	–	–
CC(C)C(=O)OC[C@H]1O[C@@H](n2cc/c(=N\O)[nH]c2=O)[C@H](O)[C@@H]1O [MOLNUPIRAVIR]	–	–	–	–	–	3.23	–
C=CC(=O)[C@H](Cc1c[nH]c2ccccc12)NC(=O)[C@H](CC(C)C)NC(=O)COc1ccc(Cl)cc1Cl	58	1080	316	–	–	–	–
C=CC(=O)[C@H](Cc1cccc(F)c1)NC(=O)[C@H](CC(C)C)NC(=O)COc1ccc(Cl)cc1Cl	–	–	–	–	Not toxic	3410	IC50 [8]: 44 nM
